The record followed here is patent publication US20220282217A1, “COMPOSITIONS AND METHODS FOR PREPARING T CELL COMPOSITIONS AND USES THEREOF” (priority 2019, published 2022).

Where a SMILES comes first, the peptide text is derived from it.

One experiment deals with HLA-A02.01 (Homo sapiens, UniProt P04439, D140Y/D185E/D98H/E176V/E277Q/G131W/G231S/I119V/I121R/I166T/I218V/L300P/L318F/N151K/N90K/P208A/P217A/Q86G/Q94H/R138H/R169H/T345S). As to the kind of experiment: Class I MHC peptide binding affinity (displacement of radiolabeled reference peptide).
Details: not given
The method, then:
In brief, MHCI complexes were prepared and bound to radiolabeled reference peptides. Peptides were incubated at varying concentrations with these complexes for 2 days, and the amount of remaining radiolabeled peptide bound to […] was measured using size exclusion gel-filtration.
For the compound `CC[C@H](C)[C@H](NC(=O)[C@H](CC(C)C)NC(=O)[C@H](CCC(N)=O)NC(=O)[C@@H](NC(=O)[C@@H](NC(=O)[C@@H](N)CO)[C@@H](C)O)C(C)C)C(=O)N[C@@H](CCSC)C(=O)N[C@@H](CCC(N)=O)C(=O)N[C@@H](CC(C)C)C(=O)O` (H-STVQLIMQL-OH; N-terminus and C-terminus assumed), binding was put at a Kd of 7260 nM.

Still in this experiment, the particulars now being: Observed Affinity (IC50; (nM)), allele A02.01.
For the compound `CC[C@H](C)[C@H](NC(=O)[C@@H]1CCCN1C(=O)[C@H](CC(C)C)NC(=O)[C@H](CC(C)C)NC(=O)[C@H](CCC(=O)O)NC(=O)[C@@H](N)Cc1ccccc1)C(=O)N1CCC[C@H]1C(=O)N1CCC[C@H]1C(=O)N[C@@H](CC(C)C)C(=O)O` (H-FELLPIPPL-OH; N-terminus and C-terminus assumed), the 50% inhibitory concentration (IC50) – broadly, the concentration that inhibits the measured activity by half – is 553 nM.
On to `CC(C)C[C@H](NC(=O)[C@H](CC(=O)O)NC(=O)[C@H](CO)NC(=O)[C@H](CCC(N)=O)NC(=O)[C@@H](N)CCC(N)=O)C(=O)N[C@@H](CCC(N)=O)C(=O)N1CCC[C@H]1C(=O)N1CCC[C@H]1C(=O)N[C@@H](C)C(=O)O` (H-QQSDLQPPA-OH; N-terminus and C-terminus assumed), for which the IC50 is 70 nM.
Same read-out and setting: next, `CC[C@H](C)[C@H](NC(=O)[C@H](CC(C)C)NC(=O)[C@H](CCC(N)=O)NC(=O)[C@@H](NC(=O)[C@@H](NC(=O)[C@@H](N)CO)[C@@H](C)O)C(C)C)C(=O)N[C@@H](CCSC)C(=O)N[C@@H](CCC(N)=O)C(=O)N[C@@H](CC(C)C)C(=O)O` (H-STVQLIMQL-OH; N-terminus and C-terminus assumed): 8540 nM.
On the same count and under the same terms, the result for `CC[C@H](C)[C@H](NC(=O)[C@H](CCC(N)=O)NC(=O)[C@@H](N)[C@@H](C)O)C(=O)N[C@@H](CO)C(=O)N[C@@H](CO)C(=O)N[C@@H](C)C(=O)N[C@H](C(=O)N[C@@H](CCC(=O)O)C(=O)N[C@@H](Cc1ccc(O)cc1)C(=O)N[C@@H](CC(C)C)C(=O)O)[C@@H](C)O` (H-TQISSATEYL-OH; N-terminus and C-terminus assumed) reads 2640 nM; that for `CC[C@H](C)[C@H](N)C(=O)N[C@H](C(=O)N[C@H](C(=O)N[C@@H](CCC(=O)O)C(=O)N[C@@H](Cc1ccccc1)C(=O)N[C@@H](CCSC)C(=O)N[C@H](C(=O)N[C@@H](Cc1ccc(O)cc1)C(=O)NCC(=O)N[C@@H](CC(N)=O)C(=O)O)[C@@H](C)O)[C@@H](C)CC)[C@@H](C)CC`, 1550 nM.

Staying with this experiment, now noted: allele A02.01; read-out: Observed Affinity (IC50; (nM)).
`CC[C@H](C)[C@H](NC(=O)[C@@H](NC(=O)[C@@H](NC(=O)[C@H](CC(C)C)NC(=O)[C@@H](NC(=O)[C@@H]1CCCN1C(=O)CNC(=O)CNC(=O)[C@@H](NC(=O)[C@@H](N)[C@@H](C)O)[C@@H](C)CC)[C@@H](C)O)C(C)C)[C@@H](C)CC)C(=O)O` (H-TIGGPTLVII-OH; N-terminus and C-terminus assumed): the IC50 came out at 10700 nM.
The same measure, in the same setting: next, `CC(C)C[C@H](NC(=O)[C@H](C)N)C(=O)N[C@@H](CC(N)=O)C(=O)N[C@@H](CO)C(=O)N[C@@H](CCC(=O)O)C(=O)N[C@@H](C)C(=O)N[C@@H](CC(C)C)C(=O)N[C@@H](CO)C(=O)N[C@H](C(=O)N[C@H](C(=O)O)C(C)C)C(C)C`: 15 nM.
Still for that read-out and setting: the result for `CSCC[C@H](N)C(=O)N[C@@H](CO)C(=O)N[C@H](C(=O)N[C@@H](CS)C(=O)N[C@@H](Cc1ccccc1)C(=O)N[C@@H](Cc1ccccc1)C(=O)N[C@@H](Cc1ccccc1)C(=O)N[C@@H](Cc1ccccc1)C(=O)N[C@@H](CO)C(=O)N[C@H](C(=O)O)C(C)C)C(C)C` (H-MSVCFFFFSV-OH; N-terminus and C-terminus assumed) reads 1710 nM; that for `CC(C)C[C@H](NC(=O)[C@H](CC(C)C)NC(=O)[C@H](CC(C)C)NC(=O)[C@H](CC(=O)O)NC(=O)[C@H](CS)NC(=O)[C@H](CC(C)C)NC(=O)[C@@H]1CCCN1C(=O)[C@@H](NC(=O)[C@@H](NC(=O)[C@@H](N)CC(N)=O)C(C)C)C(C)C)C(=O)O` (H-NVVPLCDLLL-OH; N-terminus and C-terminus assumed), 1370 nM; that for `CC[C@H](C)[C@H](NC(=O)[C@@H]1CCCN1C(=O)[C@H](CCCNC(=N)N)NC(=O)[C@H](CCC(N)=O)NC(=O)[C@H](CC(N)=O)NC(=O)[C@H](CCSC)NC(=O)CN)C(=O)N[C@@H](CC(C)C)C(=O)N[C@H](C(=O)O)[C@@H](C)O` (H-GMNQRPILT-OH; N-terminus and C-terminus assumed), 3030 nM.
For `CC(C)C[C@H](NC(=O)[C@@H](N)CC(C)C)C(=O)N[C@@H](CCC(N)=O)C(=O)N[C@H](C(=O)N[C@H](C(=O)N[C@@H](CCC(N)=O)C(=O)N[C@H](C(=O)N[C@@H](CO)C(=O)N[C@@H](Cc1ccccc1)C(=O)N[C@@H](C)C(=O)O)[C@@H](C)O)[C@@H](C)O)C(C)C` (H-LLQVTQTSFA-OH; N-terminus and C-terminus assumed), the concentration for half-maximal inhibition (IC50) came out at 677 nM.
On to `CC[C@H](C)[C@H](NC(=O)[C@@H](NC(=O)[C@@H](N)CC(C)C)[C@@H](C)O)C(=O)N[C@@H](CC(N)=O)C(=O)N[C@@H](CCCCN)C(=O)N[C@@H](CCC(=O)O)C(=O)N[C@@H](CCC(=O)O)C(=O)N[C@@H](C)C(=O)N[C@@H](CC(C)C)C(=O)O` [LTINKEEAL], for which the IC50 was 4410 nM.
Same read-out and setting: next, `CC[C@H](C)[C@H](NC(=O)[C@@H](N)CC(C)C)C(=O)N[C@H](C(=O)N[C@@H](CO)C(=O)N[C@@H](CCCNC(=N)N)C(=O)N[C@H](C(=O)N[C@@H](CC(C)C)C(=O)N[C@@H](CC(C)C)C(=O)N[C@@H](CC(C)C)C(=O)N[C@H](C(=O)O)C(C)C)[C@@H](C)O)C(C)C` (H-LIVSRTLLLV-OH; N-terminus and C-terminus assumed): 10900 nM.
On the same count and under the same terms, the result for `CC(C)C[C@H](NC(=O)[C@H](CC(C)C)NC(=O)[C@H](CC(C)C)NC(=O)[C@H](CC(=O)O)NC(=O)[C@H](CO)NC(=O)[C@H](CC(C)C)NC(=O)[C@@H]1CCCN1C(=O)[C@@H](NC(=O)[C@@H](NC(=O)[C@@H](N)CC(N)=O)C(C)C)C(C)C)C(=O)O` (H-NVVPLSDLLL-OH; N-terminus and C-terminus assumed) reads 741 nM; that for `CC[C@H](C)[C@H](N)C(=O)N[C@H](C(=O)N[C@@H](C)C(=O)N[C@@H](Cc1ccccc1)C(=O)N[C@@H](Cc1ccccc1)C(=O)N[C@@H](CC(C)C)C(=O)N[C@@H](CC(C)C)C(=O)N[C@@H](CC(=O)O)C(=O)N[C@H](C(=O)O)[C@@H](C)CC)[C@@H](C)O` (H-ITAFFLLDI-OH; N-terminus and C-terminus assumed), 78.7 nM; that for `CC(C)C[C@H](NC(=O)[C@@H](N)C(C)C)C(=O)N[C@@H](CCC(N)=O)C(=O)N[C@@H](CCCNC(=N)N)C(=O)N[C@@H](Cc1ccccc1)C(=O)N[C@@H](CCCNC(=N)N)C(=O)N[C@@H](Cc1ccccc1)C(=O)N[C@H](C(=O)N[C@@H](Cc1c[nH]cn1)C(=O)N[C@H](C(=O)O)C(C)C)[C@@H](C)O`, 107 nM.
Take `CC(C)[C@H](NC(=O)[C@H](CO)NC(=O)[C@H](CS)NC(=O)[C@H](CO)NC(=O)[C@H](CCCCN)NC(=O)[C@@H](NC(=O)[C@H](CCC(=O)O)NC(=O)[C@H](Cc1ccccc1)NC(=O)[C@H](Cc1ccccc1)NC(=O)[C@@H](N)Cc1ccccc1)[C@@H](C)O)C(=O)O` (H-FFFETKSCSV-OH; N-terminus and C-terminus assumed): the IC50 was determined as 61.2 nM.
Consider `CC(C)C[C@H](NC(=O)[C@H](CCCNC(=N)N)NC(=O)[C@@H](N)C(C)C)C(=O)N[C@@H](CO)C(=O)N[C@@H](CO)C(=O)N[C@@H](CS)C(=O)N[C@H](C(=O)N1CCC[C@H]1C(=O)N[C@H](C(=O)N[C@@H](C)C(=O)O)C(C)C)C(C)C` (H-VRLSSCVPVA-OH; N-terminus and C-terminus assumed), for which the IC50 was 1210 nM.
Still for that read-out and setting: the result for `CC[C@H](C)[C@H](N)C(=O)N[C@H](C(=O)N[C@@H](C)C(=O)N[C@@H](Cc1ccccc1)C(=O)N[C@@H](Cc1ccccc1)C(=O)N[C@@H](Cc1ccccc1)C(=O)N[C@@H](CS)C(=O)N[C@@H](Cc1c[nH]c2ccccc12)C(=O)N[C@H](C(=O)O)[C@@H](C)CC)[C@@H](C)O` (H-ITAFFFCWI-OH; N-terminus and C-terminus assumed) reads 7490 nM; that for `CSCC[C@H](NC(=O)[C@H](CCCNC(=N)N)NC(=O)[C@H](CCCNC(=N)N)NC(=O)[C@H](Cc1ccc(O)cc1)NC(=O)[C@H](CC(=O)O)NC(=O)[C@H](Cc1c[nH]c2ccccc12)NC(=O)[C@H](CO)NC(=O)[C@H](CO)NC(=O)[C@H](CC(C)C)NC(=O)[C@@H](N)Cc1ccccc1)C(=O)O` (H-FLSSWDYRRM-OH; N-terminus and C-terminus assumed), 324 nM; that for `CC[C@H](C)[C@H](NC(=O)[C@H](CC(C)C)NC(=O)[C@@H]1CCCN1C(=O)[C@H](Cc1ccccc1)NC(=O)[C@H](CC(C)C)NC(=O)[C@@H](N)CCC(=O)O)C(=O)N[C@@H](Cc1ccccc1)C(=O)N1CCC[C@H]1C(=O)N[C@@H](C)C(=O)O`, 13 nM.
For `CC[C@H](C)[C@H](NC(=O)[C@H](CC(C)C)NC(=O)[C@@H](N)CS)C(=O)N[C@H](C(=O)N[C@@H](CO)C(=O)N[C@@H](CCCNC(=N)N)C(=O)N[C@H](C(=O)N[C@@H](CC(C)C)C(=O)N[C@@H](CC(C)C)C(=O)N[C@@H](CC(C)C)C(=O)O)[C@@H](C)O)C(C)C`, the IC50 is 2010 nM.
As to `CC[C@H](C)[C@H](N)C(=O)N[C@@H](CCSC)C(=O)N[C@@H](CO)C(=O)N[C@@H](CC(C)C)C(=O)N[C@@H](Cc1c[nH]c2ccccc12)C(=O)NCC(=O)N[C@@H](CC(C)C)C(=O)N[C@H](C(=O)N[C@@H](CO)C(=O)O)C(C)C` (H-IMSLWGLVS-OH), the IC50 came out at 7320 nM.
The same measure, in the same setting: next, `CC(C)C[C@H](NC(=O)[C@H](Cc1c[nH]cn1)NC(=O)[C@H](Cc1c[nH]c2ccccc12)NC(=O)[C@H](CC(C)C)NC(=O)[C@@H](N)CCCNC(=N)N)C(=O)N[C@@H](CC(C)C)C(=O)N[C@@H](CC(C)C)C(=O)N[C@@H](CCC(N)=O)C(=O)N[C@H](C(=O)O)C(C)C` (H-RLWHLLLQV-OH; N-terminus and C-terminus assumed): 1.3 nM.
Same read-out and setting: the result for `CSCC[C@H](NC(=O)[C@H](CCC(=O)O)NC(=O)[C@H](CC(C)C)NC(=O)[C@H](CC(C)C)NC(=O)[C@H](CC(C)C)NC(=O)[C@H](CC(=O)O)NC(=O)[C@H](CO)NC(=O)[C@H](CC(C)C)NC(=O)[C@@H]1CCCN1)C(=O)N[C@@H](CC(C)C)C(=O)O` (H-PLSDLLLEML-OH; N-terminus and C-terminus assumed) reads 6470 nM.
